Tests used:
[1] = tested on: Myzus persicae (green peach aphid); experiment: Example B1: activity against Myzus persicae, sprayed sunflower leaf discs (feeding/residual contact, preventive); conditions: foliar, 144 h, read-out: activity (mortality)
[2] = tested on: Frankliniella occidentalis (western flower thrips); experiment: Example B6: activity against Frankliniella occidentalis, bean leaf discs or bean plants; assay type: in vivo; conditions: foliar, 6 days (leaf discs) or 14 days (plants) after infestation, read-out: activity (reduction of treated population)
Protocol: Activity Against Frankliniella occidentalis (Western Flower Thrips)
Bean leaf discs on agar in petri dishes or bean plants in a spray chamber are treated with diluted test solutions. After drying leaf discs are cut and placed in plastic cups on the surface of an agar layer and infested with mixed population. 6 days (leaf discs) or 14 days (plants) after the infestation, samples are checked for reduction of treated population and compared to the non treated population.

[3] = tested on: Myzus persicae (green peach aphid); experiment: Example B13: drench activity against Myzus persicae, pea seedlings in field soil; conditions: 168 h, read-out: drench activity (mortality)
[4] = tested on: Nilaparvata lugens (brown rice planthopper); experiment: Example B8: activity against Nilaparvata lugens, sprayed rice seedlings (larvicide, feeding/contact); conditions: in Oryza sativa, read-out: activity (mortality, growth regulation, effects on F1 generation)
[5] = tested on: Aphis Craccivora (cowpea aphid); experiment: Example B11: translaminar activity against Aphis craccivora on French bean leaves; assay type: in vivo; conditions: 120 h, upper leaf side painted, aphids on lower side, 5 days
Protocol: Translaminar Activity Against Aphis Craccivora (Cowpea Aphid)
French bean leaves (Phaseolus vulgaris) are infested with about 20 mixed age individuals on the lower leaf side using clip cages. 1 day after the infestation, the upper side of the leaves is treated with the test solution by painting. 5 days later, samples are checked for mortality.

[6] = tested on: Myzus persicae (green peach aphid); experiment: Example B17: activity against Myzus persicae on sprayed pepper plants (feeding/residual contact); assay type: in vivo; conditions: 144 h, infested pepper plants sprayed, 6 days
[7] = tested on: Bemisia tabaci (tobacco white fly); experiment: Example B7: activity against Bemisia tabaci, sprayed bean plants (larvicide, contact/feeding); assay type: in vivo; conditions: 504 h, bean plants with N-2 nymphs sprayed, three weeks, read-out: activity (efficacy, number of emerged adults)
Protocol: Activity Against Bemisia tabaci (Tobacco White Fly)
(Larvicide, Contact/Feeding)
Bean plants are infested with 20-30 adults that were removed after a 4 day egg-laying period. After another 7 days, bean plants with hatched nymphs (N-2) are treated (2 replicates) with the test solutions in a spray chamber. Three weeks later, samples are checked for number of emerged adults. Efficacy was calculated by comparing number of emerged adults in treated and non treated samples.

[8] = tested on: Myzus persicae (green peach aphid); experiment: Example B2: activity against Myzus persicae, pea seedling roots in test solution (systemic/feeding, curative); conditions: 144 h, read-out: activity (mortality)
[9] = tested on: Tetranychus urticae (two-spotted spider mite); experiment: Example B4: activity against Tetranychus urticae, sprayed bean leaf discs (feeding/residual contact, preventive); conditions: foliar, 192 h, read-out: activity (egg, larval and adult mortality)
[10] = tested on: Aphis Craccivora (cowpea aphid); experiment: Example B9: activity against Aphis craccivora, sprayed pea seedlings (contact/feeding); assay type: in vivo; conditions: 144 h, infested pea seedlings sprayed, 6 days
Description: (§1) Activity Against Aphis Craccivora (Cowpea Aphid)
(Mixed Population, Contact/Feeding)
6 days after treatment, samples are checked for mortality.

[11] = tested on: Aphis Craccivora (cowpea aphid); experiment: Example B10: activity against Aphis craccivora, pea seedling roots in test solution (systemic/feeding); assay type: in vivo; conditions: 144 h, roots of infested pea seedlings in test solution, 6 days
Description: as §1
(Mixed Population, Systemic/Feeding)

[12] = tested on: Thrips tabaci (onion thrips); experiment: Example B3: activity against Thrips tabaci, sprayed sunflower leaf discs (feeding/residual contact, preventive); assay type: in vivo; conditions: foliar, 144 h, mixed population, 6 days
Description: Activity Against Thrips tabaci (Onion Thrips)
(Mixed Population, Feeding/Residual Contact Activity, Preventive)

Structure (SMILES)	melting point	mortality at 400 ppm [1]	pest or weed control at 400 ppm [2]	mortality at 25 ppm [3]	mortality at 400 ppm [4]	mortality at 400 ppm [5]	mortality at 200 ppm [6]	pest or weed control at 200 ppm [7]	mortality at 400 ppm [8]	mortality at 400 ppm [9]	mortality at 400 ppm [10]	mortality at 400 ppm [11]	mortality at 400 ppm [12]
CON1CCC2(CC1)C(O)=C(c1c(C)cc(Cl)cc1C)C(=O)N2OC1CCCO1 (stereo not shown) [P2.105]	137 to 139 °C												
CCOC(=O)OC1=C(c2c(C)cc(C)cc2C)C(=O)N(OCC2CC2)C12CCN(OC)CC2 [P1.18]		> 80%	> 80%	> 80%	> 80%	> 80%	≥ 80%	> 80%	> 80%	> 80%			
CON1CCC2(CC1)C(O)=C(c1c(C)cc(C)cc1C)C(=O)N2OCC1CCCCC1 [P2.96]	169 to 172 °C												
COCCON1C(=O)C(c2cc(Br)c(F)cc2C)=C(O)C12CCN(OC)CC2 [P2.87]	71 to 74 °C												
COCON1C(=O)C(c2c(C)cc(C)cc2Cl)=C(O)C12CCN(OC)CC2 [P2.34]		> 80%		> 80%	> 80%	> 80%			> 80%	> 80%	> 80%	> 80%	> 80%
COCON1C(=O)C(c2c(C)cc(Cl)cc2C)=C(O)C12CCN(OC)CC2 [P2.104]	176 to 178 °C												
COCCON1C(=O)C(c2cc(Br)c(C)cc2C)=C(O)C12CCN(OC)CC2 [P2.73]	63 to 64 °C												
CCOC(=O)OC1=C(c2c(C)cc(C)cc2C)C(=O)N(OCC2CCOCC2)C12CCN(OC)CC2 [P1.82]		> 80%		> 80%	> 80%	> 80%	≥ 80%	> 80%	> 80%	> 80%	> 80%	> 80%	
CON1CCC2(CC1)C(O)=C(c1c(C)cc(C)cc1C)C(=O)N2OCCOC1CCCCO1 (stereo not shown) [P2.22]	135 to 137 °C												
C=CCON1C(=O)C(c2c(C)cc(C)cc2C)=C(O)C12CCN(OC)CC2 [P2.12]		> 80%	> 80%	> 80%		> 80%	≥ 80%	> 80%	> 80%	> 80%			
CCOC(=O)OC1=C(c2c(C)cc(C)cc2C)C(=O)N(OCC2CCCCO2)C12CCN(OC)CC2 (stereo not shown) [P1.26]		> 80%		> 80%	> 80%	> 80%	≥ 80%		> 80%	> 80%	> 80%	> 80%	
CON1CCC2(CC1)C(O)=C(c1c(C)cc(C)cc1C)C(=O)N2OCC1CC1 [P2.13]		> 80%	> 80%	> 80%	> 80%	> 80%	≥ 80%		> 80%	> 80%	> 80%	> 80%	> 80%
COCON1C(=O)C(c2c(F)ccc(C)c2Cl)=C(O)C12CCN(OC)CC2 [P2.60]	155 to 158 °C												
CCOC(=O)OC1=C(c2c(C)cc(C)cc2C)C(=O)N(OCOCCOC)C12CCN(OC)CC2 [P1.27]		> 80%	> 80%	> 80%	> 80%	> 80%	≥ 80%		> 80%	> 80%	> 80%	> 80%	
COCON1C(=O)C(c2cc(C)ccc2C)=C(OC)C12CCN(OC)CC2 [P1.31]	91 to 93 °C												
COCON1C(=O)C(c2cc(Br)c(F)cc2C)=C(O)C12CCN(OC)CC2 [P2.89]	64 to 67 °C												
COCON1C(=O)C(c2c(C)cc(-c3ccc(Cl)cc3)cc2C)=C(O)C12CCN(OC)CC2 [P2.15, 3-(4′-Chloro-3,5-dimethyl-biphenyl-4-yl)-4-hydroxy-8-methoxy-1-methoxymethoxy-1,8-diaza-spiro[4.5]dec-3-en-2-one]	128 °C (dec.)												
COCCON1C(=O)C(c2c(C)cc(Cl)cc2C)=C(O)C12CCN(OC)CC2 [P2.101]	161 to 164 °C												
CON1CCC2(CC1)C(O)=C(c1c(C)cc(C)cc1Cl)C(=O)N2OC [P2.55]		> 80%	> 80%	> 80%	> 80%	> 80%			> 80%	> 80%		> 80%	
CCOCON1C(=O)C(c2c(C)cc(C)cc2C)=C(O)C12CCN(OC)CC2 [P2.10]		> 80%	> 80%		> 80%	> 80%	≥ 80%		> 80%			> 80%	> 80%
CCOC(=O)OC1=C(c2ccc(C)cc2C)C(=O)N(OC)C12CCN(OC)CC2 [P1.48]		> 80%		> 80%	> 80%	> 80%	≥ 80%	> 80%	> 80%	> 80%	> 80%		
CCOC(=O)OC1=C(c2c(C)cc(C)cc2C)C(=O)N(OC2CCCCO2)C12CCN(OC)CC2 (stereo not shown) [P1.10]		> 80%	> 80%	> 80%	> 80%	> 80%	≥ 80%	> 80%	> 80%	> 80%		> 80%	
CCOC(=O)OC1=C(c2c(F)ccc(C)c2Cl)C(=O)N(OCOC)C12CCN(OC)CC2 [P1.61]	116 to 119 °C												
COCCOCON1C(=O)C(c2c(C)cc(C)cc2C)=C(O)C12CCN(OC)CC2 [P2.24]		> 80%		> 80%	> 80%	> 80%	≥ 80%		> 80%	> 80%	> 80%	> 80%	
CCOC(=O)OC1=C(c2c(C)ccc(C)c2Cl)C(=O)N(OCCOC)C12CCN(OC)CC2 [P1.60]		> 80%	> 80%	> 80%	> 80%	> 80%			> 80%	> 80%	> 80%	> 80%	
CCOC(=O)OC1=C(c2cc(C)ccc2C)C(=O)N(OCCOC)C12CCN(OC)CC2 [P1.3]		> 80%		> 80%	> 80%	> 80%	≥ 80%		> 80%		> 80%	> 80%	
CCON1C(=O)C(c2c(C)cc(C)cc2C)=C(O)C12CCN(OC)CC2 [P2.9]		> 80%	> 80%	> 80%	> 80%	> 80%	≥ 80%	> 80%	> 80%		> 80%	> 80%	
CCOC(=O)OC1=C(c2cc(C)ccc2C)C(=O)N(OC)C12CCN(OC)CC2 [P1.1]		> 80%		> 80%	> 80%	> 80%	≥ 80%		> 80%		> 80%	> 80%	
